Data from patent publication US8592490B2, “Self-microemulsifying drug delivery systems” (LEK Pharmaceuticals D.D., priority 2006, dated 2013).
Values after ≈ are worked out from the molar mass of the structure shown.

Key:
[1] = cited from earlier work
[2] = Solubility of candesartan cilexetil in water from solid state emulsion systems, room temperature; format: physicochemical; conditions: thermodynamic from solid, sample weight 50 mg in 100 ml
Experimental: (§1) The solubility of candesartan cilexetil in water was studied at room temperature. Water dispersion (100 ml) of the sample in the laboratory beaker was mixed on the magnetic stirrer for 60 minutes. Afterwards, the part of the dispersion was taken from the beaker, filtered through the 0.45 μm filter and the concentration of candesartan cilexetil was determined by HPLC.

[3] = Solubility of celecoxib in water from solid state emulsion systems; format: physicochemical; conditions: thermodynamic from solid, sample weight 100 mg, ultrasound
Experimental: as §1
The solubility of celecoxib in water was determined with the same procedure as described in Example 7.

[4] = Stability of micronized vs unmicronised candesartan cilexetil at 40° C. and 75% humidity (impurities); format: physicochemical
Experimental: This approach is not appropriate for candesartan cilexetil, because any mechanical stress applied to the crystals of candesartan cilexetil leads to deterioration of the crystal structure and/or partial or complete (if mechanical stress is long enough) amorphisation, resulting in decreased stability. For example, when micronized candesartan cilexetil with d(0.9)=5 μm is subjected to 40° C. and 75% humidity for 1 month the impurities changed from 0.33% to 0.85%, compared to 0.19% and 0.10% for the unmicronised sample.

[5] = after 40° C. and 75% humidity for 1 month

Row | impurities [4, 5] [%] | impurities ([4]; initial, before storage) [%] | Structure (SMILES) | other results
1 |  |  | CCOc1nc2cccc(C(=O)OC(C)OC(=O)OC3CCCCC3)c2n1Cc1ccc(-c2ccccc2-c2nnn[nH]2)cc1 (centres unmarked) [Candesartan cilexetil] | solubility in phosphate buffer ([1]; phosphate buffer pH=7.0, at 37° C.): less than 0.2 μg/ml; water solubility ([1]; water, at 37° C.): 0.5 µg/mL (≈ 0.819 µM); solubility at 60 min [2]: < 0.1 µg/mL
2 |  |  | Cc1ccc(-c2cc(C(F)(F)F)nn2-c2ccc(S(N)(=O)=O)cc2)cc1 [Celecoxib, 4-[5-(4-methylphenyl)-3-(trifluoromethyl)pyrazol-1-yl]benzenesulfonamide] | solubility at 60 min [3]: 0.3 µg/mL (≈ 0.787 µM)
3 | 0.85 | 0.33 | CCOc1nc2cccc(C(=O)OC(C)OC(=O)OC3CCCCC3)c2n1Cc1ccc(-c2ccccc2-c2nnn[nH]2)cc1 (centres unmarked) [micronized candesartan cilexetil, candesartan cilexetil] | 
4 | 0.10 | 0.19 | CCOc1nc2cccc(C(=O)OC(C)OC(=O)OC3CCCCC3)c2n1Cc1ccc(-c2ccccc2-c2nnn[nH]2)cc1 (centres unmarked) [unmicronised sample, candesartan cilexetil] | 
